Active and inactive are the calls of the source. The calls are words filed in the database; no cut-off is given here.
How the values were obtained:
NIH3T3 = test: Inhibition of TNF-alpha induced necroptosis in mouse 3T3SA cells assessed as increase in cell viability at 0.04 to 1 uM incubated for 18 hrs in presence of zVAD by Cell Titer-Glo luminescent cell viability assay; format: functional, cell-based; details: dose 0.04-1 µM
[1] = target: Aurora kinase B (Homo sapiens) (UniProt Q96GD4); test: Inhibition of human Aurora B using H-LRRASLG as substrate at 1 uM in presence of 32P-ATP by Hotspot assay relative to control; values are per cent of control
Aurora kinase B (Homo sapiens), sequence (Q96GD4 whole entry): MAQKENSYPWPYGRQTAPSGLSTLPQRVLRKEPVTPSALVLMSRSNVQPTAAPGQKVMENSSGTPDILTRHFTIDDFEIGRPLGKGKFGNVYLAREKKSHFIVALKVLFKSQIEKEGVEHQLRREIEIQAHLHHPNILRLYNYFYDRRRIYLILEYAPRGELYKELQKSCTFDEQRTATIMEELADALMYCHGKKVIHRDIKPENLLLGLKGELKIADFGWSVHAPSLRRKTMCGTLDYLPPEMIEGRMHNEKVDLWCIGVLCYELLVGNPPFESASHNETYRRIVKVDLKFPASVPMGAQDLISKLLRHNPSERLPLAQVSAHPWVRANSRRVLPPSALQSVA

[2] = target: T1, Aurora kinase C (Homo sapiens) (UniProt Q9UQB9); test: Inhibition of human Aurora C using H-LRRASLG as substrate at 1 uM in presence of 32P-ATP by Hotspot assay relative to control; values are per cent of control
T1 sequence (whole entry): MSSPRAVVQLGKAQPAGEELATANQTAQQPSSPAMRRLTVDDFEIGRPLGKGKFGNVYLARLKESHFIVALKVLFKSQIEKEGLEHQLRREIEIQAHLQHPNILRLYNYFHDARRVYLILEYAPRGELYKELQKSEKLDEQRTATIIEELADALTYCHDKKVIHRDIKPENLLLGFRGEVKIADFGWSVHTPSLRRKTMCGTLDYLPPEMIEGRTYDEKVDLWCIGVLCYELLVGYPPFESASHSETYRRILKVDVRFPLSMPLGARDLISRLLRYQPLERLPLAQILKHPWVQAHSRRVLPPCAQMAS

[3] = target: Death-associated protein kinase 2 (Homo sapiens) (UniProt Q9UIK4); test: Inhibition of human DAPK2 using KKLNRTLSFAEPG as substrate at 1 uM in presence of 32P-ATP by Hotspot assay relative to control; values are per cent of control
Death-associated protein kinase 2 (Homo sapiens), sequence (Q9UIK4 whole entry, looked up): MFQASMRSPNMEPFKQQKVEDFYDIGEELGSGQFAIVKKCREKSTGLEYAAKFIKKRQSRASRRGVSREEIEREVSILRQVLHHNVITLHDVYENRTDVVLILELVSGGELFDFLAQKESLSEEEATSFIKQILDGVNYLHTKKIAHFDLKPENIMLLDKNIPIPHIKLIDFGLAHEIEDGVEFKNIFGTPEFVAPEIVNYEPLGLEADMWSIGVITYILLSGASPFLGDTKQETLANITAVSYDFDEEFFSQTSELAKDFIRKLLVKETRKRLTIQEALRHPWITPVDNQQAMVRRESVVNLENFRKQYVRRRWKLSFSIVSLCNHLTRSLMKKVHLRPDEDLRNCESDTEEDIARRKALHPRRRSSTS

[4] = target: T2, Tyrosine-protein kinase Tec (Homo sapiens) (UniProt P42680); test: Inhibition of human TEC using poly[Glu:Tyr] (4:1) as substrate at 1 uM in presence of 32P-ATP by Hotspot assay relative to control; values are per cent of control
T2 sequence (whole entry): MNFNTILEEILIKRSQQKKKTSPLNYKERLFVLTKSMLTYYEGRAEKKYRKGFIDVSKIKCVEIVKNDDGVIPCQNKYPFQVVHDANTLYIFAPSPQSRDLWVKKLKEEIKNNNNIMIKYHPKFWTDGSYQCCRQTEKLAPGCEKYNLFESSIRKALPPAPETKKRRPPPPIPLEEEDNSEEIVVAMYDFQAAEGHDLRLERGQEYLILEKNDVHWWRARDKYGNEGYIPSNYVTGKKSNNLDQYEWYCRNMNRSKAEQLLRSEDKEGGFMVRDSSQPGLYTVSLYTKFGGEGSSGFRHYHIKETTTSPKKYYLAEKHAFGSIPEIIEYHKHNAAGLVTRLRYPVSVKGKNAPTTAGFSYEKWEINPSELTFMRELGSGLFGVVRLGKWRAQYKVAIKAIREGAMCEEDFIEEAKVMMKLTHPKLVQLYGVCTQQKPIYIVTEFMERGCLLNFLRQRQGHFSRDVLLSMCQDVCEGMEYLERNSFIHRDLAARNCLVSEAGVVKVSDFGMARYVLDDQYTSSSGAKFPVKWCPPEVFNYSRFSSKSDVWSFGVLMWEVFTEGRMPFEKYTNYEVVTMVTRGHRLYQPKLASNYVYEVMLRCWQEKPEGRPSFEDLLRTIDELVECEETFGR

[5] = target: CDK3/Cyclin E (Homo sapiens) (UniProt P24864+Q00526); test: Inhibition of human CDK3/cyclin E using RB Protein as substrate at 1 uM in presence of 32P-ATP by Hotspot assay relative to control; values are per cent of control
CDK3/Cyclin E (Homo sapiens), sequence (P24864 whole entry, looked up): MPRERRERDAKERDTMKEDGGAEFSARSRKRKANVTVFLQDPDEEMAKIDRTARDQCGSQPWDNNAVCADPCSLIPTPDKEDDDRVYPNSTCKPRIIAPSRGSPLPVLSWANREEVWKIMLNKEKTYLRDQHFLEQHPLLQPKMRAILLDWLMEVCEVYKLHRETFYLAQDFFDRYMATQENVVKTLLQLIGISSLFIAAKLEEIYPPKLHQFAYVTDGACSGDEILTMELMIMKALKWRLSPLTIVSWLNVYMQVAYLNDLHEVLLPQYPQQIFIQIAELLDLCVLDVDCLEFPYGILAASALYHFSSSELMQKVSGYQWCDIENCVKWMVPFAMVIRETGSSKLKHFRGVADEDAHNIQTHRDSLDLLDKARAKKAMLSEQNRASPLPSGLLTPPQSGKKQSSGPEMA
CDK3/Cyclin E (Homo sapiens), sequence (Q00526 whole entry, looked up): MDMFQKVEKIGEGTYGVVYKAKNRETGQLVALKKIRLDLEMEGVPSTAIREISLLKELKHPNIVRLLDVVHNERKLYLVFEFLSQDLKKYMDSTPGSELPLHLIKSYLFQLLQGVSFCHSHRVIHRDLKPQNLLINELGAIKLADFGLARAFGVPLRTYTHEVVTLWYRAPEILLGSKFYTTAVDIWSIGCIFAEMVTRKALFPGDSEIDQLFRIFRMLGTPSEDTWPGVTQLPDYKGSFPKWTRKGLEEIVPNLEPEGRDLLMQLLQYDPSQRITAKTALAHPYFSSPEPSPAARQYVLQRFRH

[6] = target: Tyrosine-protein kinase JAK1 (Homo sapiens) (UniProt P23458); test: Inhibition of human JAK1 using poly[Glu:Tyr] (4:1) as substrate at 1 uM in presence of 32P-ATP by Hotspot assay relative to control; values are per cent of control
Tyrosine-protein kinase JAK1 (Homo sapiens), sequence (P23458 whole entry): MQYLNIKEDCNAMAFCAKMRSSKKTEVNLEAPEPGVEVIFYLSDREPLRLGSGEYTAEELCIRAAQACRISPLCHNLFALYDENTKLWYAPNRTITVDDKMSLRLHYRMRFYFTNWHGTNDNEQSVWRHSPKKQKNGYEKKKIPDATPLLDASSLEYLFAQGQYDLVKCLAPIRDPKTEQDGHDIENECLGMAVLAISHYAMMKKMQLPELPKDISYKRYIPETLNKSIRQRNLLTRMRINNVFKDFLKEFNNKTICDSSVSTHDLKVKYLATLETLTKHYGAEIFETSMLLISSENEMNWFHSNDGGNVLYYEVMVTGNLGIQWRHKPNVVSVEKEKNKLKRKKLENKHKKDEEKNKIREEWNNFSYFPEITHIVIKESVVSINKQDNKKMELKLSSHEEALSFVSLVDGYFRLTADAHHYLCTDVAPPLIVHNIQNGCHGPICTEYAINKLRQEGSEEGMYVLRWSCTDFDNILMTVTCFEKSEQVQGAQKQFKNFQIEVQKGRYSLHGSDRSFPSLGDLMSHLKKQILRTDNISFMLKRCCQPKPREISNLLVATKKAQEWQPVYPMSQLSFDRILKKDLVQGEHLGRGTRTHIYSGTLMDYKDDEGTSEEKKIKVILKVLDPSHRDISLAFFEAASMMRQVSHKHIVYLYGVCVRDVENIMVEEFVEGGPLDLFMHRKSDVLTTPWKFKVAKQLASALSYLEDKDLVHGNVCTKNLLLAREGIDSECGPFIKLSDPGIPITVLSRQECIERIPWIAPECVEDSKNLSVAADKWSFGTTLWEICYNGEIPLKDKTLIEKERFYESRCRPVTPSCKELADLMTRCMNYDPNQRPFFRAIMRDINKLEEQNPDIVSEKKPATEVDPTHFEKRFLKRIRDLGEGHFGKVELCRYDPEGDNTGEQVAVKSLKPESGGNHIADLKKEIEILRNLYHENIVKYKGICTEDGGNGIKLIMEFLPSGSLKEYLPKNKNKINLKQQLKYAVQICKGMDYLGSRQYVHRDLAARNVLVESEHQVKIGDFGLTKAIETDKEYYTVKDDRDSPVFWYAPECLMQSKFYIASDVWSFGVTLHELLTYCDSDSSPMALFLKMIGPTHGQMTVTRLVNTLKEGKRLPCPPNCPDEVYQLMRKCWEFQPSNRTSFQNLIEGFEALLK

[7] = target: T3, Interleukin-1 receptor-associated kinase 4 (Homo sapiens) (UniProt Q9NWZ3); test: Inhibition of human IRAK4 using myelin basic protein as substrate at 1 uM in presence of 32P-ATP by Hotspot assay relative to control; values are per cent of control
T3 sequence (whole entry): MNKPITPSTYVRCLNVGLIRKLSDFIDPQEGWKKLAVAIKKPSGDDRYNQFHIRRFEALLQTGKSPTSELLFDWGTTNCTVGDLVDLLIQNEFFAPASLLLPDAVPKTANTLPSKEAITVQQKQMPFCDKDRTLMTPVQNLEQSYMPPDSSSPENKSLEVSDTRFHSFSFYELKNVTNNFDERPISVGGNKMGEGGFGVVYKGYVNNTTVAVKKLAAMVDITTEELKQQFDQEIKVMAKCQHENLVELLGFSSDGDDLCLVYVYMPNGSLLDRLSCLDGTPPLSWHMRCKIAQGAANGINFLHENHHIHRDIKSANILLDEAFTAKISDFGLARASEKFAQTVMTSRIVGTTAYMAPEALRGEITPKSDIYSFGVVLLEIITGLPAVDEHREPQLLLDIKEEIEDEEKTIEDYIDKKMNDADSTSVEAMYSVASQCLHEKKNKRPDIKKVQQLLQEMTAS

[8] = target: Receptor tyrosine-protein kinase erbB-4 (Homo sapiens) (UniProt Q15303); test: Inhibition of human ERBB4/HER4 using poly[Glu:Tyr] (4:1) as substrate at 1 uM in presence of 32P-ATP by Hotspot assay relative to control; values are per cent of control
Receptor tyrosine-protein kinase erbB-4 (Homo sapiens), sequence (Q15303 whole entry): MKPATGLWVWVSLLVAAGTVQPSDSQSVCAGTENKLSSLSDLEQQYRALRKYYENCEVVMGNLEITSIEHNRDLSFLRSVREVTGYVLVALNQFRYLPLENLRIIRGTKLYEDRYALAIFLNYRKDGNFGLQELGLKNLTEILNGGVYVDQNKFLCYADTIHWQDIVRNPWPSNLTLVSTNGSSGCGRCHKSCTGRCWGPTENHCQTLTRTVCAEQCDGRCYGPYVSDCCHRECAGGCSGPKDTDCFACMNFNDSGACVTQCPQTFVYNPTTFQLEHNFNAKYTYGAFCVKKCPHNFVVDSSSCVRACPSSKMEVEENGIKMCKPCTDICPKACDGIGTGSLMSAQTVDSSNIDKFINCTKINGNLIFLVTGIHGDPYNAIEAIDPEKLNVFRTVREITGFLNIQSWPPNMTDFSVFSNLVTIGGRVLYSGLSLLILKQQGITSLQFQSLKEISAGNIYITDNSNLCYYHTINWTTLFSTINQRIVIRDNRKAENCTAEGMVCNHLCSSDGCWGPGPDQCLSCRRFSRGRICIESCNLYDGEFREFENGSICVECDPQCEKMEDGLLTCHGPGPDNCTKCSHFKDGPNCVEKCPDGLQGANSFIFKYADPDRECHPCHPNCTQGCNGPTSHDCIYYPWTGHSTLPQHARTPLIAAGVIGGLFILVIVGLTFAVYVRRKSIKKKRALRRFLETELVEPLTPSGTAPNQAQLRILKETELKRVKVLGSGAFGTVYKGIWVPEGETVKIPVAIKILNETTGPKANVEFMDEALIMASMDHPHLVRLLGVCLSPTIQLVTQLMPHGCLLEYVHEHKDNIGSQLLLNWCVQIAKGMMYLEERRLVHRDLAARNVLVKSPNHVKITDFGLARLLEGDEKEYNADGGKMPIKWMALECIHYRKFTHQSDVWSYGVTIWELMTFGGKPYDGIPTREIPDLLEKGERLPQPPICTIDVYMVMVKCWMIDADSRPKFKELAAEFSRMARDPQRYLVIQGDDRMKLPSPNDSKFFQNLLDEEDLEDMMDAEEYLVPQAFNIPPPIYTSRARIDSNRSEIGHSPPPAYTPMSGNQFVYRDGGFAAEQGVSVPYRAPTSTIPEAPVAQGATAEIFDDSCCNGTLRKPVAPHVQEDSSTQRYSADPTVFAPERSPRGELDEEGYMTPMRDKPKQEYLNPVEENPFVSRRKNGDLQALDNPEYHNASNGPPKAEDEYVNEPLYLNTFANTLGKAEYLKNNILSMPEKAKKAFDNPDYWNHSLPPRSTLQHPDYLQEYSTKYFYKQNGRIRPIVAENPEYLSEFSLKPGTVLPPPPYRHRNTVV

[9] = target: CDK9/cyclin T1 (Homo sapiens) (UniProt O60563+P50750); test: Inhibition of human CDK9/cyclin T1 using KTFCGTPEYLAPEVRREPRILSEEEQEMFRDFDYIADWC as substrate at 1 uM in presence of 32P-ATP by Hotspot assay relative to control; values are per cent of control

| SMILES | inhibition (NIH3T3) | residual activity [1] [%] | residual activity [2] [%] | residual activity [3] [%] | residual activity [4] [%] | residual activity [5] [%] | residual activity [6] [%] | residual activity [7] [%] | residual activity [8] [%] | residual activity [9] [%] |
| --- | --- | --- | --- | --- | --- | --- | --- | --- | --- | --- |
| CC(C)S(=O)(=O)c1ccc2nccc(Nc3ccc4scnc4c3)c2c1 | Active | 97.5 | 88.3 | 104 | 99.8 | 88.5 | 94.9 | 97.5 | 89.3 | 96.6 |
| Cc1cc(-c2cnc(N)c3c(-c4ccc5scnc5c4)csc23)n(C)n1 | Active | 89.8 | 91.3 | 82.4 | 89.7 | 87.6 | 88.3 | 99.7 | 98.4 | 96.2 |
| CNC(=O)c1ccc2c(c1)ncn2-c1ccc(CC(=O)OC(C)(C)C)cc1 | inactive | 82.1 | 95.5 | 96.3 | 93.1 | 92.4 | 98.2 | 102 | 93.8 | 91.3 |
